{"source": "ChEMBL document CHEMBL2074466", "about": "“Breast cancer resistance protein exports sulfated estrogens but not free estrogens” (Mol Pharmacol, 2003)", "key": {"[1]": {"target": "T1, Broad substrate specificity ATP-binding cassette transporter ABCG2 (Homo sapiens, UniProt Q9UNQ0)", "T1 sequence (Q9UNQ0 whole entry)": "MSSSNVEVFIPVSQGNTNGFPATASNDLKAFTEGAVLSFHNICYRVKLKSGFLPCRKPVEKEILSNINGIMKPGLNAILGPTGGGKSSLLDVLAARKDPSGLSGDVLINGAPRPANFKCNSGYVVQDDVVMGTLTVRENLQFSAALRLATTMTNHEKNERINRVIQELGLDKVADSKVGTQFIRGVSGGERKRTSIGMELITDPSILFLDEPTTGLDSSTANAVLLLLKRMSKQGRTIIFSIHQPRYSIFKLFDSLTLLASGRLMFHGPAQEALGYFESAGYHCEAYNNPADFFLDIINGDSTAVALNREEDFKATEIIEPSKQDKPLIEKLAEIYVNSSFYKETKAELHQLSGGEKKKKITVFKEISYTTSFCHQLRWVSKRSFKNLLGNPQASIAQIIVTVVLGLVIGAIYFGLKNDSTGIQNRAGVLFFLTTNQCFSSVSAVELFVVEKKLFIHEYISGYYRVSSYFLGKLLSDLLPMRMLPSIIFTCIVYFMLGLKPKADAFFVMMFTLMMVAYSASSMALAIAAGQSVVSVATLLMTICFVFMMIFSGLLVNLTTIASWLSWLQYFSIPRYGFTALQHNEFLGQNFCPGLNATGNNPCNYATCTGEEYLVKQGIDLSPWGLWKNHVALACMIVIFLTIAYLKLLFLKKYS", "test": "TP_TRANSPORTER: efflux in BCRP-expressing LLC-PK1 cells", "format": "functional, cell-based", "details": "pig"}, "BCRP (ABCG2) [2]": {"target": "T2, BCRP (ABCG2) (Homo sapiens, UniProt Q9UNQ0)", "T2 sequence (Q9UNQ0 whole entry)": "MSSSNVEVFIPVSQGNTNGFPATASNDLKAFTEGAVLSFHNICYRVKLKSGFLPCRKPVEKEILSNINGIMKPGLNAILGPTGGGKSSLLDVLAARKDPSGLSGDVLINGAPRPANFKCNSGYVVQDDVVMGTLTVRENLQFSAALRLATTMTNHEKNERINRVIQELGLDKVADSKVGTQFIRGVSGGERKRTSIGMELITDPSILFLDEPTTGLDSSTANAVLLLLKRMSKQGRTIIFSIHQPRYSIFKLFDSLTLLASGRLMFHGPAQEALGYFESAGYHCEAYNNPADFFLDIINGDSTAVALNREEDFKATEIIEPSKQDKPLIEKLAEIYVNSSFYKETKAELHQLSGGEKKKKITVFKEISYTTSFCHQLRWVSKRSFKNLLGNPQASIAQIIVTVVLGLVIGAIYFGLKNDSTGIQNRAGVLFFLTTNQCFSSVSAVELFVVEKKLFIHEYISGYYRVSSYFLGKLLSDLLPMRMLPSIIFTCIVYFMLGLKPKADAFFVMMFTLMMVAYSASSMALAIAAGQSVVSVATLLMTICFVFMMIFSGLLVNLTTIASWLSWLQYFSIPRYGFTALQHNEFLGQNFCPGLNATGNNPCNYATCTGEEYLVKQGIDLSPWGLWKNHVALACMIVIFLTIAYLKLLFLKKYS", "test": "TP_TRANSPORTER: inhibition of E1S uptake by 17beta-estradiol 3-sulfate at a concentration of 30uM in membrane vesicle from BCRP-expressing K562 cells", "format": "functional, cell membranes", "set-up": "scale not given: the % may be the effect or the level left", "details": "membrane vesicles from BCRP-expressing K562 cells, probe E1S, read-out: Activity"}, "BCRP (ABCG2) [3]": {"target": "T2, BCRP (ABCG2)", "test": "TP_TRANSPORTER: inhibition of E1S uptake by Taurolithocholate-3-sulfate at a concentration of 30uM in membrane vesicle from BCRP-expressing K562 cells", "format": "functional, cell membranes", "set-up": "scale not given: the % may be the effect or the level left", "details": "membrane vesicles from BCRP-expressing K562 cells, probe E1S, read-out: Activity"}, "[4]": {"target": "T1, Broad substrate specificity ATP-binding cassette transporter ABCG2", "test": "TP_TRANSPORTER: drug resistance in BCRP-expressing LLC-PK1 cells", "format": "functional, cell-based", "details": "pig"}, "[5]": {"target": "T1, Broad substrate specificity ATP-binding cassette transporter ABCG2", "test": "TP_TRANSPORTER: inhibition of E1S uptake by 7-ethyl-10-hydroxycamptothecin at a concentration of 20uM in membrane vesicle from BCRP-expressing K562 cells", "format": "functional, cell membranes", "set-up": "scale not given: the % may be the effect or the level left", "details": "k562, 20 µM"}, "BCRP (ABCG2) [6]": {"target": "T2, BCRP (ABCG2)", "test": "TP_TRANSPORTER: inhibition of E1S uptake by 17beta-estradiol at a concentration of 30uM in membrane vesicle from BCRP-expressing K562 cells", "format": "functional, cell membranes", "set-up": "scale not given: the % may be the effect or the level left", "details": "membrane vesicles from BCRP-expressing K562 cells, probe E1S, read-out: Activity"}, "[7]": {"target": "T1, Broad substrate specificity ATP-binding cassette transporter ABCG2", "test": "TP_TRANSPORTER: uptake in BCRP-expressing LLC-PK1 cells", "format": "functional, cell-based", "details": "pig"}, "BCRP (ABCG2) [8]": {"target": "T2, BCRP (ABCG2)", "test": "TP_TRANSPORTER: inhibition of E1S uptake by Estrone at a concentration of 30uM in membrane vesicle from BCRP-expressing K562 cells", "format": "functional, cell membranes", "set-up": "scale not given: the % may be the effect or the level left", "details": "membrane vesicles from BCRP-expressing K562 cells, probe E1S, read-out: Activity"}, "[9]": {"target": "T1, Broad substrate specificity ATP-binding cassette transporter ABCG2", "test": "TP_TRANSPORTER: inhibition of E1S uptake by Cortisol at a concentration of 30uM in membrane vesicle from BCRP-expressing K562 cells", "format": "functional, cell membranes", "set-up": "scale not given: the % may be the effect or the level left", "details": "k562, 30 µM"}, "BCRP (ABCG2) [10]": {"target": "T2, BCRP (ABCG2)", "test": "TP_TRANSPORTER: inhibition of E1S uptake by Dehydroepiandrosterone-3-sulfate at a concentration of 30uM in membrane vesicle from BCRP-expressing K562 cells", "format": "functional, cell membranes", "set-up": "scale not given: the % may be the effect or the level left", "details": "membrane vesicles from BCRP-expressing K562 cells, probe E1S, read-out: Activity"}, "BCRP (ABCG2) [11]": {"target": "T2, BCRP (ABCG2)", "test": "TP_TRANSPORTER: inhibition of E1S uptake by Taurolithocholate at a concentration of 30uM in membrane vesicle from BCRP-expressing K562 cells", "format": "functional, cell membranes", "set-up": "scale not given: the % may be the effect or the level left", "details": "membrane vesicles from BCRP-expressing K562 cells, probe E1S, read-out: Activity"}, "[12]": {"substrate": "C[C@]12CC[C@@H]3c4ccc(OS(=O)(=O)O)cc4CC[C@H]3[C@@H]1CCC2=O", "test": "TP_TRANSPORTER: uptake in membrane vesicle from BCRP-expressing K562 cells", "format": "functional, cell membranes"}}}
{"molecule": "C[C@]12CC[C@@H]3c4ccc(OS(=O)(=O)O)cc4CC[C@H]3[C@@H]1CC[C@@H]2O", "values": [{"measurement": "Activity", "setting": "[1]", "result": "substrate []"}, {"measurement": "activity at 30 µM", "setting": "BCRP (ABCG2) [2]", "result": 50, "unit": "%"}]}
{"molecule": "C[C@H](CCC(=O)NCCS(=O)(=O)O)C1CC[C@H]2[C@@H]3CC[C@@H]4C[C@H](OS(=O)(=O)O)CC[C@]4(C)[C@H]3CC[C@]12C", "note": "(some centres undefined)", "values": [{"measurement": "activity at 30 µM", "setting": "BCRP (ABCG2) [3]", "result": 30, "unit": "%"}]}
{"molecule": "CCc1c2c(nc3ccc(O)cc13)-c1cc3c(c(=O)n1C2)COC(=O)[C@]3(O)CC", "note": "[7-ETHYL-10-HYDROXYCAMPTOTHECIN]", "values": [{"measurement": "Activity", "setting": "[4]", "result": "substrate []"}, {"measurement": "Activity", "setting": "[5]", "result": 40, "unit": "%"}]}
{"molecule": "C[C@]12CC[C@@H]3c4ccc(O)cc4CC[C@H]3[C@@H]1CC[C@@H]2O", "note": "[ESTRADIOL]", "values": [{"measurement": "activity at 30 µM", "setting": "BCRP (ABCG2) [6]", "result": 50, "unit": "%"}]}
{"molecule": "C[C@]12CC[C@@H]3c4ccc(OS(=O)(=O)O)cc4CC[C@H]3[C@@H]1CCC2=O", "note": "[ESTRONE SULFURIC ACID]", "values": [{"measurement": "Activity", "setting": "[7]", "result": "substrate []"}]}
{"molecule": "C[C@]12CC[C@@H]3c4ccc(O)cc4CC[C@H]3[C@@H]1CCC2=O", "note": "[ESTRONE]", "values": [{"measurement": "activity at 30 µM", "setting": "BCRP (ABCG2) [8]", "result": 70, "unit": "%"}]}
{"molecule": "COc1ccc2c3c([nH]c2c1)[C@H](C=C(C)C)N1C(=O)[C@@H]2CCCN2C(=O)[C@@H]1C3", "note": "[FUMITREMORGIN]", "values": [{"measurement": "Activity", "setting": "[4]", "result": "substrate []"}]}
{"molecule": "C[C@]12CCC(=O)C=C1CC[C@@H]1[C@@H]2[C@@H](O)C[C@@]2(C)[C@H]1CC[C@]2(O)C(=O)CO", "note": "[HYDROCORTISONE]", "values": [{"measurement": "Activity", "setting": "[9]", "result": 70, "unit": "%"}]}
{"molecule": "O=C1c2c(O)ccc(O)c2C(=O)c2c(NCCNCCO)ccc(NCCNCCO)c21", "note": "[MITOXANTRONE]", "values": [{"measurement": "Activity", "setting": "[4]", "result": "substrate []"}]}
{"molecule": "C[C@]12CC[C@H](OS(=O)(=O)O)CC1=CC[C@@H]1[C@@H]2CC[C@]2(C)C(=O)CC[C@@H]12", "note": "[PRASTERONE SULFURIC ACID]", "values": [{"measurement": "activity at 30 µM", "setting": "BCRP (ABCG2) [10]", "result": 50, "unit": "%"}]}
{"molecule": "C[C@H](CCC(=O)NCCS(=O)(=O)O)[C@H]1CC[C@H]2[C@@H]3CC[C@@H]4C[C@H](O)CC[C@]4(C)[C@H]3CC[C@]12C", "note": "[TAUROLITHOCHOLIC ACID]", "values": [{"measurement": "activity at 30 µM", "setting": "BCRP (ABCG2) [11]", "result": 20, "unit": "%"}]}
{"molecule": "Broad substrate specificity ATP-binding cassette transporter ABCG2 (Homo sapiens) (protein) MSSSNVEVFIPVSQGNTNGFPATASNDLKAFTEGAVLSFHNICYRVKLKSGFLPCRKPVEKEILSNINGIMKPGLNAILGPTGGGKSSLLDVLAARKDPSGLSGDVLINGAPRPANFKCNSGYVVQDDVVMGTLTVRENLQFSAALRLATTMTNHEKNERINRVIQELGLDKVADSKVGTQFIRGVSGGERKRTSIGMELITDPSILFLDEPTTGLDSSTANAVLLLLKRMSKQGRTIIFSIHQPRYSIFKLFDSLTLLASGRLMFHGPAQEALGYFESAGYHCEAYNNPADFFLDIINGDSTAVALNREEDFKATEIIEPSKQDKPLIEKLAEIYVNSSFYKETKAELHQLSGGEKKKKITVFKEISYTTSFCHQLRWVSKRSFKNLLGNPQASIAQIIVTVVLGLVIGAIYFGLKNDSTGIQNRAGVLFFLTTNQCFSSVSAVELFVVEKKLFIHEYISGYYRVSSYFLGKLLSDLLPMRMLPSIIFTCIVYFMLGLKPKADAFFVMMFTLMMVAYSASSMALAIAAGQSVVSVATLLMTICFVFMMIFSGLLVNLTTIASWLSWLQYFSIPRYGFTALQHNEFLGQNFCPGLNATGNNPCNYATCTGEEYLVKQGIDLSPWGLWKNHVALACMIVIFLTIAYLKLLFLKKYS", "values": [{"measurement": "Km", "setting": "[12]", "result": 6.8, "unit": "µM"}]}
